The values below come from patent US20220363709A1, “ECTONU[…] METHODS OF USE THEREOF” (priority 2019, published 2022).

The experiment has as its target T1, recombinant CD73 (Homo sapiens, UniProt P21589).
T1 construct: purchased R&D Systems 5795-EN-010
T1 sequence (P21589 27-547 limits assumed): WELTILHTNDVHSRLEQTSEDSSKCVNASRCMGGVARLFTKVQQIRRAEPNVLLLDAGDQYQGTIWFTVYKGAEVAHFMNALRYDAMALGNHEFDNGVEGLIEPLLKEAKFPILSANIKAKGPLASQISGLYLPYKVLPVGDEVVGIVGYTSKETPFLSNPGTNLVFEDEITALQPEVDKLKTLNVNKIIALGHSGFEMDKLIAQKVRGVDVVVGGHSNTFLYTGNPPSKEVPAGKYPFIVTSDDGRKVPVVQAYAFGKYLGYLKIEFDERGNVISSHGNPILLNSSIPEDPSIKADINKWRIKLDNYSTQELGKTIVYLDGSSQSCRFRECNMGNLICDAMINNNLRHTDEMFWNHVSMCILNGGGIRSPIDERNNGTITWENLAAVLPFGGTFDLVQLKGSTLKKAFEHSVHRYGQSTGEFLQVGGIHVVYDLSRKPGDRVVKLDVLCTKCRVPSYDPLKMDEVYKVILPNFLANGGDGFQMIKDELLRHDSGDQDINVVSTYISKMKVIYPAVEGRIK
The experiment is described as follows: Assay 1: Inhibition of the CD73 Enzyme In Vitro. It counts as biochemical. To be noted: soluble recombinant CD73 0.5 nM, AMP 50 μM, 30 minutes at room temperature, Malachite Green, absorbance at 630 nm; read-out: Assay 1 CD73 IC50. Here is the method:
Serial dilutions of test compounds were incubated with recombinant CD73 and AMP in reaction buffer (25 mM Tris HCl pH7.5, 5 mM MgCl2, 50 mM NaCl, 0.25 mM DTT, 0.005% Triton X-100). The final reaction volume was 25 μL and the final concentrations of recombinant CD73 and AMP were 0.5 nM and 50 μM, respectively. […] After 5 minutes at room temperature, absorbance at 630 nm was determined on a microplate spectrophotometer. The concentration of inorganic phosphate was determined using a phosphate standard curve.
ND indicates not determined.
By IC50 is commonly meant the concentration that gives 50% inhibition. Consider `Nc1nc(Cl)nc2c1ncn2[C@@H]1O[C@H](COC(Cc2ccc(-c3ccccc3C(=O)O)cc2)(C(=O)O)c2cscn2)[C@@H](O)[C@@H]1F` (mixture of isomers) [Example 13, 4′-(2-(((2R,3R,4S,5R)-5-(6-amino-2-chloro-9H-purin-9-yl)-4-fluoro-3-hydroxytetrahydrofuran-2-yl)methoxy)-2-carboxy-2-(thiazol-4-yl)ethyl)-[1,1′-biphenyl]-2-carboxylic acid], for which the IC50 was 0.218 µM.
In the case of `Cc1cc(C(Cc2ccccc2)(OC[C@H]2O[C@@H](n3cnc4c(N)nc(Cl)nc43)[C@H](O)[C@@H]2O)C(=O)O)no1` (mixture of isomers) [Example 37, 2-(((2R,3S,4R,5R)-5-(6-amino-2-chloro-9H-purin-9-yl)-3,4-dihydroxytetrahydrofuran-2-yl)methoxy)-2-(5-methylisoxazol-3-yl)-3-phenylpropanoic acid], the IC50 was 8.73 µM.
Turning to `CCN(CC)C(=O)c1ccccc1-c1ccc(CC(OC[C@H]2O[C@@H](n3cnc4c(N)nc(Cl)nc43)[C@H](O)[C@@H]2O)(C(=O)O)c2cscn2)cc1` (mixture of isomers) [Example 45, 2-(((2R,3S,4R,5R)-5-(6-amino-2-chloro-9H-purin-9-yl)-3,4-dihydroxytetrahydrofuran-2-yl)methoxy)-3-(2′-(diethylcarbamoyl)-[1,1′-biphenyl]-4-yl)-2-(thiazol-4-yl)propanoic acid], the IC50 was 0.833 µM.
On to `Nc1nc(Cl)nc2c1ncn2[C@@H]1O[C@H](CO[C@@](Cc2ccc(-c3ccc(C(=O)O)cc3)cc2)(C(=O)O)c2cscn2)[C@@H](O)[C@@H]1F` (single isomer, unassigned) [Example 11], for which the IC50 turned out to be 1.53 µM.
For `Nc1nc(Cl)nc2c1ncn2[C@@H]1O[C@H](CO[C@](Cc2ccc(-c3ccccc3)cc2)(C(=O)O)c2cscn2)[C@@H](O)[C@@H]1F` (single isomer, unassigned) [Example 8], the IC50 stood at 0.241 µM.
The figure for `COc1ncccc1-c1ccc(C[C@](OC[C@H]2O[C@@H](n3cnc4c(N)nc(Cl)nc43)[C@@H](F)[C@@H]2O)(C(=O)O)c2cscn2)cc1` (single isomer, unassigned) [Example 20] is 2.75 µM; for `Nc1nc(Cl)nc2c1ncn2[C@@H]1O[C@H](COC(Cc2ccc(-c3ccccc3CC(=O)O)cc2)(C(=O)O)c2cscn2)[C@@H](O)[C@@H]1F` (mixture of isomers) [Example 18, 2-(((2R3R,4S,5R)-5-(6-amino-2-chloro-9H-purin-9-yl)-4-fluoro-3-hydroxytetrahydrofuran-2-yl)methoxy)-3-(2′-(carboxymethyl)-[1,1′-biphenyl]-4-yl)-2-(thiazol-4-yl)propanoic acid] it is 0.182 µM; for `Cc1nc([C@](Cc2ccc(-c3ccccc3)cc2)(OC[C@H]2O[C@@H](n3cnc4c(N)nc(Cl)nc43)[C@H](O)[C@@H]2O)C(=O)O)cs1` (single isomer, unassigned) [Example 28] it is 0.09 µM.
Take `Nc1nc(Cl)nc2c1ncn2[C@@H]1O[C@H](CO[C@@](Cc2ccc(-c3ccccc3C(=O)O)cc2)(C(=O)O)c2ccccc2)[C@@H](O)[C@H]1O` (single isomer, unassigned) [Example 48]: the IC50 was 14.1 µM.
With `Nc1nc([C@@](Cc2ccccc2)(OC[C@H]2O[C@@H](n3cnc4c(N)nc(Cl)nc43)[C@H](O)[C@@H]2O)C(=O)O)cs1` (single isomer, unassigned) [Example 31], the IC50 amounted to 1.97 µM.
Turning to `CNS(=O)(=O)c1ccccc1-c1ccc(CC(OC[C@H]2O[C@@H](n3cnc4c(N)nc(Cl)nc43)[C@H](O)[C@@H]2O)(C(=O)O)c2cscn2)cc1` (mixture of isomers) [Example 38, 2-(((2R,3S,4R,5R)-5-(6-amino-2-chloro-9H-purin-9-yl)-3,4-dihydroxytetrahydrofuran-2-yl)methoxy)-3-(2′-(N-methylsulfamoyl)-[1,1′-biphenyl]-4-yl)-2-(thiazol-4-yl)propanoic acid], the IC50 is 0.042 µM.
On to `CCCNc1nc(Cl)nc2c1ncn2[C@@H]1O[C@H](COC(Cc2ccc(-c3ccccc3C(=O)O)cc2)(C(=O)O)c2cscn2)[C@@H](O)[C@@H]1F` (mixture of isomers) [Example 25, 4′-(2-carboxy-2-(((2R,3R,4S,5R)-5-(2-chloro-6-(propylamino)-9H-purin-9-yl)-4-fluoro-3-hydroxytetrahydrofuran-2-yl)methoxy)-2-(thiazol-4-yl)ethyl)-[1,1′-biphenyl]-2-carboxylic acid], for which the 50% inhibitory concentration (IC50) was 0.382 µM.
For `Nc1nc(Cl)nc2c1ncn2[C@@H]1O[C@H](CO[C@@](Cc2ccc(-c3ccccc3CC(=O)O)cc2)(C(=O)O)c2cscn2)[C@@H](O)[C@H]1O` (single isomer, unassigned) [Example 7], the IC50 was determined as 1.03 µM.
Then `Nc1nc(Cl)nc2c1ncn2[C@@H]1O[C@H](CO[C@](Cc2ccc(-c3ccc[nH]c3=O)cc2)(C(=O)O)c2cscn2)[C@@H](O)[C@@H]1F` (single isomer, unassigned) [Example 21], with 0.047 µM.
With `Nc1nc(Cl)nc2c1ncn2[C@@H]1O[C@H](CO[C@@](Cc2ccc(-c3ccc(C(=O)O)cc3)cc2)(C(=O)O)c2cscn2)[C@@H](O)[C@H]1O` (single isomer, unassigned) [Example 3], the IC50 turned out to be 1.25 µM.
Turning to `Nc1nc(Cl)nc2c1ncn2[C@@H]1O[C@H](CO[C@@](Cc2ccccc2)(C(=O)O)c2cocn2)[C@@H](O)[C@H]1O` (single isomer, unassigned) [Example 36], the IC50 was determined as 6.26 µM.
As for `Nc1nc(Cl)nc2c1ncn2[C@@H]1O[C@H](CO[C@@](Cc2ccc(C(=O)O)cc2)(C(=O)O)c2cscn2)[C@@H](O)[C@@H]1F` (single isomer, unassigned) [Example 16], the IC50 worked out at 4.87 µM.
In the case of `N#Cc1ccccc1-c1ccc(CC(OC[C@H]2O[C@@H](n3cnc4c(N)nc(Cl)nc43)[C@@H](F)[C@@H]2O)(C(=O)O)c2cscn2)cc1` (mixture of isomers) [Example 12, 2-(((2R3R,4S,5R)-5-(6-amino-2-chloro-9H-purin-9-yl)-4-fluoro-3-hydroxytetrahydrofuran-2-yl)methoxy)-3-(2′-cyano-[1,1′-biphenyl]-4-yl)-2-(thiazol-4-yl)propanoic acid], the IC50 amounted to 0.433 µM.
For `Nc1nc([C@](Cc2ccccc2)(OC[C@H]2O[C@@H](n3cnc4c(N)nc(Cl)nc43)[C@H](O)[C@@H]2O)C(=O)O)cs1` (single isomer, unassigned) [Example 30], the concentration for half-maximal inhibition (IC50) came out at 0.342 µM.
On to `COc1cccc(CO)c1-c1ccc(C[C@](OC[C@H]2O[C@@H](n3cnc4c(N)nc(Cl)nc43)[C@H](O)[C@@H]2O)(C(=O)O)c2cscn2)cc1` (single isomer, unassigned) [Example 40], for which the half-maximal inhibitory concentration (IC50) amounted to 2.23 µM.
Regarding `CCCNc1nc(Cl)nc2c1ncn2[C@@H]1O[C@H](COC(Cc2ccccc2)(C(=O)O)c2cscn2)[C@@H](O)[C@@H]1F` (mixture of isomers) [Example 24, 2-(((2R,3R4S,5R)-5-(2-chloro-6-(propylamino)-9H-purin-9-yl)-4-fluoro-3-hydroxytetrahydrofuran-2-yl)methoxy)-3-phenyl-2-(thiazol-4-yl)propanoic acid], the IC50 stood at 1.24 µM.
